Reference: patent US20180200257A1, “METHODS FOR THE TREATMENT OF INFLAMMATORY DISORDERS” (Galapagos NV, priority 2015, published 2018)

Tested on: subjects with moderately to severely active RA who have an inadequate response to methotrexate (MTX)
Assay: Study 2 (monotherapy) - serum CRP values
Format: in vivo, human
Source text: Randomized, double-blind, placebo-controlled, multicenter, phase IIb dose finding study of Compound 1 (dosed as a [Compound 1:HCl:3H2O]) administered for 24 weeks as monotherapy to subjects with moderately to severely active rheumatoid arthritis who have an inadequate response to methotrexate alone
Double-blind, placebo-controlled, monotherapy study in subjects with moderately to severely active RA who have an inadequate response to methotrexate (MTX) (oral or parenteral).
280 subjects randomized to one of 3 doses of Compound 1 (dosed as a [Compound 1:HCl:3H2O]) or to placebo, given once daily (q.d.).
Twelve weeks of treatment with Compound 1 (dosed as a [Compound 1:HCl:3H2O]) at 50 mg, 100 mg, or 200 mg q.d.; or placebo. At Week 12, all subjects on placebo and the subjects on the 50 mg dose who have not achieved 20% improvement in swollen joint count (SJC66) and tender joint count (TJC68) will be assigned to 100 mg q.d. in a blinded fashion and will continue treatment until Week 24. Subjects in the other groups will maintain their randomized treatment until Week 24.
CRP determination is available at Quest Diagnostics, Clinical Trials, Quest House, 125-135 Staines Road, Hounslow, Middlesex, TW3 3JB, United Kingdom under Catalogue n#86140.
The determination of CRP is made using Immunoturbidimetric assay for the in vitro quantitative determination of CRP in human serum and plasma on Roche/Hitachi cobas c systems, wherein human CRP agglutinates with latex particles coated with monoclonal anti-CRP antibodies. The aggregates are determined turbidimetrically (Eda et al., 1998; Price et al., 1987).
Human serum and plasma samples CRP determination was done on a Roche/Hitachi Cobas c 301 c 501/502 system which automatically calculate the analyte concentration of each sample. Samples containing precipitates are centrifuged before performing the assay.
The machine parameters are listed in Table XCI and Table XCII below, and the results at 12 weeks v using either LOCF are shown in Table XCIII and below. The Hommel-corrected p-value for the pairwise comparisons of each group with placebo is shown.
The number of subjects (N) provided in each groups corresponds to the number of subjects starting the study in each group, and the CRP data reported below corresponds to the responding subjects continuing for the entire 24 weeks on their initial treatment course.

For `O=C(Nc1nc2cccc(-c3ccc(CN4CCS(=O)(=O)CC4)cc3)n2n1)C1CC1` [Compound 1, cyclopropanecarboxylic acid {5-[4-(1,1-dioxo-thiomorpholin-4-ylmethyl)-phenyl]-[1,2,4]triazolo[1,5-a]pyridin-2-yl}-amide], the “CRP mean CFB mg/L (LOCF)” value (50 mg q.d., week 1, 12 weeks results) was -3.70 mg/L, the “CRP mean CFB mg/L (LOCF)” value (50 mg q.d., week 2, 12 weeks results) was -4.16 mg/L and the “CRP mean CFB mg/L (LOCF)” value (50 mg q.d., week 4, 12 weeks results) was -9.46 mg/L. The “CRP mean CFB mg/L (LOCF)” value (50 mg q.d., week 12, 12 weeks results) was -4.43 mg/L, the “CRP mean CFB mg/L (LOCF)” value (50 mg q.d., week 8, 12 weeks results) was -11.16 mg/L and the “CRP mean CFB mg/L (LOCF)” value (100 mg q.d., week 1, 12 weeks results) was -10.33 mg/L. For the same compound, the “CRP mean CFB mg/L (LOCF)” value (100 mg q.d., week 2, 12 weeks results) was -8.67 mg/L, the “CRP mean CFB mg/L (LOCF)” value (100 mg q.d., week 4, 12 weeks results) was -12.08 mg/L and the “CRP mean CFB mg/L (LOCF)” value (100 mg q.d., week 12, 12 weeks results) was -12.25 mg/L. For the same compound, the “CRP mean CFB mg/L (LOCF)” value (100 mg q.d., week 8, 12 weeks results) was -14.17 mg/L, the “CRP mean CFB mg/L (LOCF)” value (200 mg q.d., week 1, 12 weeks results) was -12.58 mg/L and the “CRP mean CFB mg/L (LOCF)” value (200 mg q.d., week 2, 12 weeks results) was -13.28 mg/L. The “CRP mean CFB mg/L (LOCF)” value (200 mg q.d., week 4, 12 weeks results) was -13.04 mg/L, the “CRP mean CFB mg/L (LOCF)” value (200 mg q.d., week 12, 12 weeks results) was -14.85 mg/L and the “CRP mean CFB mg/L (LOCF)” value (200 mg q.d., week 8, 12 weeks results) was -13.86 mg/L.
